# Legend:
# H. contortus = conditions: background statement; cited from earlier work
# A. caninum = conditions: in vivo; cited from earlier work
# [1] = tested on: Haemonchus contortus infective larvae; test: In vitro bioassay of infective larvae, immobilization and lethal doses (eosin, Probit); type: cell-based; conditions: H. contortus infective larvae; for 48 hr ID50 ± 95% confidence intervals: immobilize 50%; for 48 hr ID50 ± 95% confidence intervals / 48 hr ID90 ± 95% confidence intervals / 48 hr LD50 ± 95% confidence intervals / 48 hr LD90 ± 95% confidence intervals: 48 hr in vitro; for 48 hr ID90 ± 95% confidence intervals: immobilize 90%; for 48 hr LD50 ± 95% confidence intervals: kill 50%; for 48 hr LD90 ± 95% confidence intervals: kill 90%
# Method: (§1) Strongyloides stercoralis infective larvae were harvested from charcoal coprocultures in nematode saline solution. The larvae were supplied by the Parasitology Laboratory, Department of Pathobiology, University of Pennsylvania. The strain of larvae was a human strain of the parasitic nematode that had been maintained for over ten years in canines by daily prednisolone treatment (2 mg/kg per os, once daily. Parastrongyloides trichosuri and Ancylostoma caninum infective larvae were also supplied by the same source as for S. stercoralis. Haemonchus contortus infective larvae were harvested from charcoal coprocultures in nematode saline solution prepared from infected sheep feces obtained from Merck Parasites Laboratory.
# (§2) The 24 hr 50% and 90% immobilization doses (ID50 and ID90), and 50% and 90% lethal doses (LD50 and LD90) of eryngial (mg/ml) were investigated in vitro using infective larvae of all four parasitic nematodes. Each species was exposed to a range of eryngial dilutions by adding known volumes of a homogeneous ‘wormy’ solution (infective larvae in nematode saline solution) to known volumes of an eryngial stock suspension (10 mg/ml of nematode saline solution). Each dilution, including the control (0 mg/ml eryngial), was prepared in triplicate and also contained eosin (0.01%, w/v), which was used as an indicator of mortality, and Triton X-100 (1.0%, v/v).
# (§3) Using S. stercoralis, P. trichosuri, H. contortus and A. caninum infective larvae, eryngial dilutions, excluding the controls, ranged from 0.05 to 1.15 mg/ml; 0.01 to 1.0 mg/ml; 0.5 to 2.0 mg/ml; and 0.8 to 3.0 mg/ml, respectively. Sub-sample (10 μl) counts of larvae that were mobile, immobile but not stained and stained, were done at the start of each bioassay and at 24 hr intervals for two days. Each sub-sample contained approximately 50 infective larvae.
# (§4) The 48-hr immobilization doses (ID50 and ID90) and lethal doses (LD50 and LD90) of eryngial and ivermectin also were investigated, using S. stercoralis and H. contortus infective larvae. Each bioassay was conducted as described hereinabove. Using S. stercoralis and H. contortus infective larvae, ivermectin dilutions (not including the controls) ranged from 0.03 to 0.3 mg/ml and from 0.009 to 0.1 mg/ml, respectively.
# (§5) Probit analysis was used to determine 24 hr and 48 hr immobilization and lethal doses for eryngial and ivermectin, respectively.
# [2] = tested on: Strongyloides stercoralis infective larvae; test: as above; type: cell-based; conditions: S. stercoralis infective larvae, 48 hr in vitro; for 48 hr ID50 ± 95% confidence intervals: immobilize 50%; for 48 hr ID90 ± 95% confidence intervals: immobilize 90%; for 48 hr LD50 ± 95% confidence intervals: kill 50%; for 48 hr LD90 ± 95% confidence intervals: kill 90%
# Method: as §1, §2, §3, §4, §5
# [3] = tested on: A. canimun life-cycle stages; conditions: in vitro, Wang et al. (1989), cited from earlier work
# P. trichosuri = conditions: doramectin 0.6 mg/kg, in vivo, p<0.05, Ralston et al. (2001); cited from earlier work
compound,measurement,setting,value
"CCCSc1ccc2nc(NC(=O)OC)[nH]c2c1 [Albendazole, albendazole]",efficacy rates against H. contortus infections,H. contortus,100%
c1ccc(C2CN3CCSC3=N2)cc1 (stereo not shown) [tetramisole],efficacy rates against H. contortus infections,H. contortus,100%
ivermectin [reference compound],effectiveness in infected dogs,A. caninum,clearing the infection completely
same,48 hr ID50 ± 95% confidence intervals,[1],0.011 (0.001-0.022) mg/ml
same,48 hr ID50 ± 95% confidence intervals,[1]; listed as ivermectin,0.011 mg/mL
same,48 hr ID90 ± 95% confidence intervals,[1],0.059 (0.043-0.092) mg/ml
same,48 hr ID90 ± 95% confidence intervals,[1]; listed as ivermectin,0.059 mg/mL
same,times greater in potency than eryngial (48 hr ID90),[1]; ivermectin vs eryngial,12.9 times
same,times more effective than eryngial at immobilizing (48 hr ID50),[1]; ivermectin vs eryngial,28.5 times
same,48 hr LD50 ± 95% confidence intervals,[1],4.990 (4.572-5.954) mg/ml
same,48 hr LD50 ± 95% confidence intervals,[1]; listed as ivermectin,4.990 mg/mL
same,48 hr LD90 ± 95% confidence intervals,[1],6.949 (5.858-10.10) mg/ml
same,48 hr LD90 ± 95% confidence intervals,[1]; listed as ivermectin,6.949 mg/mL
same,48 hr ID50 ± 95% confidence intervals,[2],0.136 (0.114-0.157) mg/ml
same,48 hr ID50 ± 95% confidence intervals,[2]; listed as ivermectin,0.136 mg/mL
same,48 hr ID90 ± 95% confidence intervals,[2],0.297 (0.251-0.377) mg/ml
same,48 hr ID90 ± 95% confidence intervals,[2]; listed as ivermectin,0.297 mg/mL
same,48 hr LD50 ± 95% confidence intervals,[2],0.306 (0.203-0.442) mg/ml
same,48 hr LD50 ± 95% confidence intervals,[2]; listed as ivermectin,0.306 mg/mL
same,48 hr LD90 ± 95% confidence intervals,[2],1.038 (0.665-2.498) mg/ml
same,48 hr LD90 ± 95% confidence intervals,[2]; listed as ivermectin,1.038 mg/mL
same,dose that killed L3 larvae,[3]; A. caninum L3 larvae,2.5 mg/mL
same,dose that killed adult worms,[3]; A. caninum adult worms,560 mg/mL
same,dose detrimental to eggs inside the uterine tissue of female worms,[3]; A. caninum eggs,1000 mg/mL
CO[C@H]1C[C@H](O[C@H]2[C@H](C)O[C@@H](O[C@@H]3/C(C)=C/C[C@@H]4C[C@@H](C[C@]5(C=C[C@H](C)[C@@H](C6CCCCC6)O5)O4)OC(=O)[C@@H]4C=C(C)[C@@H](O)[C@H]5OC/C(=C\C=C\[C@@H]3C)[C@]54O)C[C@@H]2OC)O[C@@H](C)[C@@H]1O [doramectin],reduction of P. trichosuri infection in possums,P. trichosuri,99%
